Reference: US6821743B2, “Human endothelin receptor” (Shionogi Sieyaku Kabushiki Kaisha, priority 1991, dated 2004)
pIC50: −log10 of the molar value. Entries after “also recorded” stand apart in the source; their conditions may differ. Bridge positions count the residues as written; N and C are the ends. Peptide text beside a SMILES is read from it.

Tests used:
[1] = in vivo, previously shown; cited from earlier work
[2] = test system: rat A-10 vascular smooth muscle cell; conditions: J. Biol. Chem. 265, 14044-14049 (1990); cited from earlier work
[3] = molecular target: T1, ETA-receptor (Homo sapiens, UniProt P25101); experiment: Competitive 125I-ET-1 binding assay on COS-7 cells transfected with CDM8-phETIR; set-up: expressed in transfected cells; host or cells: COS-7 cells; conditions: displacement of 50 pM 125I-ET-1, transfected COS-7 cells, 37° C. for 60 min
T1 sequence (P25101 21-427): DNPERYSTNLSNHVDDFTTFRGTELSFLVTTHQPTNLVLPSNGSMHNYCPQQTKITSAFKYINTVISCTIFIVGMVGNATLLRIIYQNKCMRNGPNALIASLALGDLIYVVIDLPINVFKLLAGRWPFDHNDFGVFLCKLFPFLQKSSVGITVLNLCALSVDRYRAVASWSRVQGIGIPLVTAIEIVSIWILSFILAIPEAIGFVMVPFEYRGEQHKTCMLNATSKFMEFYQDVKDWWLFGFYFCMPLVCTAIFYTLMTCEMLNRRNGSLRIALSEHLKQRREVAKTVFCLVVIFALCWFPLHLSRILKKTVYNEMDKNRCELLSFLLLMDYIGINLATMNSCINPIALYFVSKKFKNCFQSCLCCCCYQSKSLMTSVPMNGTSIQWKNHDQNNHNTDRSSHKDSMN

[4] = molecular target: T2, ETB-receptor (Homo sapiens, UniProt P24530); experiment: Competitive 125I-ET-1 binding assay on COS-7 cells transfected with CDM8-pHETBR
T2 construct: expressed in transfected cells; host or cells: COS-7 cells
T2 sequence (P24530 27-442): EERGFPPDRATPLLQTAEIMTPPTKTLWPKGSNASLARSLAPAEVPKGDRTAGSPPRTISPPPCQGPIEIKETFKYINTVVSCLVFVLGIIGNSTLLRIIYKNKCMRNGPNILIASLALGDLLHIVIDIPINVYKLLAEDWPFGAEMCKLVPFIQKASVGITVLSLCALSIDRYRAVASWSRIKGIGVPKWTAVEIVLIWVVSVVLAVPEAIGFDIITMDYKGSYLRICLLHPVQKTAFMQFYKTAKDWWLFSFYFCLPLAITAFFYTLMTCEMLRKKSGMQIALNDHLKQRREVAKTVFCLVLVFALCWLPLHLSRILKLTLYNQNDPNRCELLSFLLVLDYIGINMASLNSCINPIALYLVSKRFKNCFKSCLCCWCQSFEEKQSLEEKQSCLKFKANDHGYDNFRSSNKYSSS

[5] = molecular target: T1, ETA-receptor; experiment: Inward current in Xenopus laevis oocytes injected with ETA-receptor mRNA; assay type: cell-based; conditions: 1×10^−7 M peptide, holding potential −60 mV, 20° C.

Structure (SMILES)	vasoconstrictor strength [1]	inhibition of binding of 125I-ET-1 [2]	pIC50 [3]	pIC50 ([4]; displacement of 125I-ET-1, COS cell transformed with CDM8-pHETBR)	inward current recorded from the oocyte [5]	affinity of the receptor (FIG. 4) ([4]; transformant containing CDM8-pHETBR)
CC[C@H](C)[C@H](NC(=O)[C@H](CC(=O)O)NC(=O)[C@H](CC(C)C)NC(=O)[C@H](Cc1c[nH]cn1)NC(=O)[C@@H]1CSSC[C@H](N)C(=O)N[C@@H](CO)C(=O)N[C@H]2CSSC[C@H](NC(=O)[C@H](CCC(=O)O)NC(=O)[C@H](CCCCN)NC(=O)[C@H](CC(=O)O)NC(=O)[C@H](CCSC)NC(=O)[C@H](CC(C)C)NC(=O)[C@H](CO)NC(=O)[C@H](CO)NC2=O)C(=O)N[C@@H](C(C)C)C(=O)N[C@@H](Cc2ccc(O)cc2)C(=O)N[C@@H](Cc2ccccc2)C(=O)N1)C(=O)N[C@H](C(=O)N[C@@H](Cc1c[nH]c2ccccc12)C(=O)O)[C@@H](C)CC [ET-1, Endothelin 1]	much more strong vasoconstrictors than ET-3	inhibit the binding of ^125I-ET-1				
CC[C@H](C)[C@H](NC(=O)[C@H](CC(=O)O)NC(=O)[C@H](CC(C)C)NC(=O)[C@H](Cc1cnc[nH]1)NC(=O)[C@@H]1CSSC[C@H](N)C(=O)N[C@@H](CO)C(=O)N[C@H]2CSSC[C@H](NC(=O)[C@H](CCC(=O)O)NC(=O)[C@H](CCCCN)NC(=O)[C@H](CC(=O)O)NC(=O)[C@H](CC(C)C)NC(=O)[C@H](Cc3c[nH]c4ccccc34)NC(=O)[C@H](CO)NC(=O)[C@H](CO)NC2=O)C(=O)N[C@@H](C(C)C)C(=O)N[C@@H](Cc2ccc(O)cc2)C(=O)N[C@@H](Cc2ccccc2)C(=O)N1)C(=O)N[C@H](C(=O)N[C@@H](Cc1c[nH]c2ccccc12)C(=O)O)[C@@H](C)CC [ET-2, Endothelin 2] (H-CSCSSWLDKECVYFCHLDIIW-OH; disulfide 1-15, 3-11)			8.21	~9.00		
CC[C@H](C)[C@H](NC(=O)[C@H](CC(=O)O)NC(=O)[C@H](CC(C)C)NC(=O)[C@H](Cc1c[nH]cn1)NC(=O)[C@@H]1CSSC[C@H](N)C(=O)N[C@@H](CO)C(=O)N[C@H]2CSSC[C@H](NC(=O)[C@H](CCC(=O)O)NC(=O)[C@H](CCCCN)NC(=O)[C@H](CC(=O)O)NC(=O)[C@H](CC(C)C)NC(=O)[C@H](Cc3c[nH]c4ccccc34)NC(=O)[C@H](CO)NC(=O)[C@H](CO)NC2=O)C(=O)N[C@@H](C(C)C)C(=O)N[C@@H](Cc2ccc(O)cc2)C(=O)N[C@@H](Cc2ccccc2)C(=O)N1)C(=O)N[C@H](C(=O)N[C@@H](Cc1c[nH]c2ccccc12)C(=O)O)[C@@H](C)CC [ET-2, Endothelin 2] (H-CSCSSWLDKECVYFCHLDIIW-OH; disulfide 1-15, 3-11; N-terminus and C-terminus assumed)	much more strong vasoconstrictors than ET-3	inhibit the binding of ^125I-ET-1			the same value of current; also recorded: A similar inward current	almost the same affinity
